The source of these data is patent publication US8487072B2, “Compounds for stimulating P-glycoprotein function and uses thereof” (Angiochem Inc., priority 2006, dated 2013).

Read-outs that look alike come from different tables or passages of the source.

The test system of data set [1] is P-gp. The data set is described as follows: Brain uptake of [3H]-Taxol in vivo (P-gp efflux transport at the blood brain barrier). Set-up: species or system mice. To be noted: peptide 20 μg/ml; for reduction of [3H]-Taxol in the capillaries and in the parenchyma relative to total brain: [3H]-Taxol perfused 5 minutes; for reduction of Taxol passage in the total brain vs control mice: [3H]-Taxol perfused through right jugular vein for 5 minutes, total brain (FIG. 2). As to the method: The effect of compounds on P-gp efflux transport activity was investigated in vivo. For this purpose, the brain uptake of [^3H]-Taxol, a specific substrate of P-gp, was measured. [^3H]-Taxol was perfused into the brain through the right jugular vein for 5 minutes in the presence or absence of pepCav or pepPgp at a concentration of 20 μg/ml. Radioactivity of [^3H]-Taxol was analyzed in the total brain, the capillary and the parenchyma.

The subject of a further data set is MDCK-MDR1 cells. The data set is described as follows: Cell migration of MDCK-MDR1 cells, Transwell filters. Format: cell-based, canine. To be noted: 20 μg/ml, Transwell 8 μm precoated with 0.15% gelatin, 10% serum as chemoattractant (FIGS. 3A, 3B). Here is the method:
The effect of both compounds on cell migration, was determined by the migration of MDCK-MDR1 cells using Transwell filters (Costar; 8 μm pore size) precoated with 0.15% gelatin. Briefly, 1×10^5 cells were resuspended in 100 μl of serum-free medium with or without compounds (20 μg/ml). The lower chamber of the Transwell contained 10% serum used as chemoattractant. Cell migration was determined using a Nikon TMS-F microscope and Northern Eclipse Software. As observed in FIGS. 3A and 3B, pepPgp and pepCav inhibited cells migration of MDCK-MDR1 by 30% and 80%, respectively, as compared to the control.

The test system of data set [2] is human umbilical vein endothelial cells (HUVEC). The data set is described as follows: HUVEC tube formation on Matrigel (angiogenesis in vitro). It is filed as cell-based. To be noted: 40 μg/ml, 18 hours (FIG. 4A). As to the method: The effect of these compounds on angiogenesis was evaluated in vitro using human umbilical vein endothelial cells (HUVEC) tube formation on Matrigel. Following transfections, cells were trypsinized and 2.5×10^4 cells were seeded on Matrigel. After cellular adhesion, the medium was removed and 100 μl fresh medium was added with or without 40 μg/ml of either pepCav or pepPgp. Tube formation was evaluated after 18 hours. After incubation, tubular structures were visualized at 60× magnification using a Nikon TMS-F microscope and Northern Eclipse Software.

The next data set has as its system angiogenesis. The data set is described as follows: Matrigel plug assay (angiogenesis in vivo), hemoglobin content. As to conditions: Matrigel with heparin and bFGF under the skin of mice, plug removed after one week; 100 μg/ml in the method, 40 μg/ml in the result sentence (FIG. 4B). Here is the method:
The effect of these compounds on angiogenesis was evaluated in vivo using the Matrigel plug assay. Briefly, Matrigel containing heparin and bFGF was injected under the skin of mice in the presence or absence of 100 μg/ml pepCav and pepPgp. The Matrigel plug was removed after one week. Hemoglobin content in the Matrigel plugs, which corresponds to the vessels formed, was measured.

Data set [3] concerns the target P-gp (Homo sapiens, UniProt P08183).

Sequence of P-gp (Homo sapiens, UniProt P08183) (P08183 whole entry): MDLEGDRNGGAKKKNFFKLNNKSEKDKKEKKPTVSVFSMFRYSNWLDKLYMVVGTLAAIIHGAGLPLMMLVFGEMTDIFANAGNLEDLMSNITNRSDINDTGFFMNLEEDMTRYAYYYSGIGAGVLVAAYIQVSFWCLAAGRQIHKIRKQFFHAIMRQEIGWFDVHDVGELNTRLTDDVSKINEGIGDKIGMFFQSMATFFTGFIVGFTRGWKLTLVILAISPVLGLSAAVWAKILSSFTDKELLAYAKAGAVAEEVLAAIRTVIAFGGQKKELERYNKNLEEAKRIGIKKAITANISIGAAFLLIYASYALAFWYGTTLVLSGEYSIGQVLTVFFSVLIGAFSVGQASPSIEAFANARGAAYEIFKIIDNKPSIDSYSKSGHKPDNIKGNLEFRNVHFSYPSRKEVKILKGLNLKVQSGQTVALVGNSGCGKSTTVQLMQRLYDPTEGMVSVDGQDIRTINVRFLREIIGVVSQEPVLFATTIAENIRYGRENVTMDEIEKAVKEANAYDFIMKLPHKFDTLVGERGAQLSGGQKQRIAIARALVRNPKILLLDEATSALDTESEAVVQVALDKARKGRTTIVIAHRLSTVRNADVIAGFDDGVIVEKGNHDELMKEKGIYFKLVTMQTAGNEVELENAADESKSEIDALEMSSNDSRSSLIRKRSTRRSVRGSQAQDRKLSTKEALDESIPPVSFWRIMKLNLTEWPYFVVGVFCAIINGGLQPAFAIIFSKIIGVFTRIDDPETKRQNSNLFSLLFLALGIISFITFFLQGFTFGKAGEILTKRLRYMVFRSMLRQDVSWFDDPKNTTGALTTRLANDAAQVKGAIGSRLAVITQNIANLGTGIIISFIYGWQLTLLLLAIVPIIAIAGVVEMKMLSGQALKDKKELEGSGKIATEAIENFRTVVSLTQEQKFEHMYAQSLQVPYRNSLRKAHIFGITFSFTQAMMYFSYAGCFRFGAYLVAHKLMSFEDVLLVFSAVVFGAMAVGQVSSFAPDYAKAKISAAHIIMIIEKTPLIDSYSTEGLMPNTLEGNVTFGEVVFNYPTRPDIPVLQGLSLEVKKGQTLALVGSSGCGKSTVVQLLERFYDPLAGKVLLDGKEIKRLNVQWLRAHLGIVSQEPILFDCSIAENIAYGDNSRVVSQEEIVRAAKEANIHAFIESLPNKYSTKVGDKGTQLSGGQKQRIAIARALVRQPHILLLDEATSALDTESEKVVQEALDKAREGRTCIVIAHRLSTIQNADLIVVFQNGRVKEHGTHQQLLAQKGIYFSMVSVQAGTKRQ

Regarding DGIWKASFTTFTVTKYWFYR [pepCav], in the data set on P-gp [1], the “reduction of [3H]-Taxol in the capillaries and in the parenchyma relative to total brain” value was “similar”; the “reduction of Taxol passage in the total brain vs control mice” value was 50%. The “inhibition of cell migration of MDCK-MDR1 vs control” value in the data set with MDCK-MDR1 cells is recorded as 80%. In addition, the “reduction of capillary-like structure formation” value in data set [2] came out at 75%. Also, in the data set with angiogenesis, the “reduction of hemoglobin content in Matrigel plug vs control (bFGF alone)” value turned out to be 25%. Further, the “accumulation of [3H]-vinblastine as a function of time” value with P-gp [3] (MDCK-MDR1 cells, 20 μg/ml peptide, different times following treatment (FIG. 1A)) is given as “decreased as a function of time”. The “[3H]-vinblastine accumulation with increasing concentrations of compound” value in the data set with P-gp [3] (MDCK-MDR1 cells, increasing concentrations (FIG. 1B)) is given as “reduced”.
For VFSMFRYSNWLDK [pepPgp], in the data set with P-gp [1], the “reduction of [3H]-Taxol in the capillaries and in the parenchyma relative to total brain” value is “similar”; the “reduction of Taxol passage in the total brain vs control mice” value is reported as 30%. The “inhibition of cell migration of MDCK-MDR1 vs control” value in the data set with MDCK-MDR1 cells is recorded as 30%. For the same sequence, the “reduction of capillary-like structure formation” value in data set [2] stood at 40%. Moreover, the “reduction of hemoglobin content in Matrigel plug vs control (bFGF alone)” value with angiogenesis came out at 40%. Further, the “[3H]-vinblastine accumulation with increasing concentrations of compound” value in the data set with P-gp [3] is reported as “reduced”.
